The target of one assay is T1, CDK2/Cyclin E (Homo sapiens, UniProt P24941).
T1 construct: purchased Eurofins 14-475
Kind of assay: CDK2/Cyclin E enzymatic phosphorylation assay (Caliper mobility shift). Note: 1.0 mM ATP or ATP Km. The class given is biochemical. The settings on record: read-out: Enzyme CDK2/cyclin E IC50. As to the method:
(§1) Reactions proceeded until between 10% to 20% total peptides were phosphorylated at room temperature (25° C.) and were terminated with 35 mM 2,2′,2″,2′″-(ethane-1,2-diyldinitrilo)tetraacetic acid (EDTA). Product was detected using the Caliper mobility shift detection method where the phosphorylated peptide (product) and substrate were electrophoretically separated and measured. Percent activity was plotted against log concentration of compound and points to generate an apparent IC50.

Another assay has as its target T2, CDK1/Cyclin B1 (Homo sapiens, UniProt P06493).
T2 construct: GST; purchased BPS 40454
The experiment in a line: CDK1/Cyclin B1 enzymatic phosphorylation assay (Caliper mobility shift). The assay is classed as biochemical. The settings on record: read-out: Enzyme CDK1/cyclin B1 IC50. The procedure:
as §1

Structures are written as SMILES.

T2 sequence (P06493 whole entry): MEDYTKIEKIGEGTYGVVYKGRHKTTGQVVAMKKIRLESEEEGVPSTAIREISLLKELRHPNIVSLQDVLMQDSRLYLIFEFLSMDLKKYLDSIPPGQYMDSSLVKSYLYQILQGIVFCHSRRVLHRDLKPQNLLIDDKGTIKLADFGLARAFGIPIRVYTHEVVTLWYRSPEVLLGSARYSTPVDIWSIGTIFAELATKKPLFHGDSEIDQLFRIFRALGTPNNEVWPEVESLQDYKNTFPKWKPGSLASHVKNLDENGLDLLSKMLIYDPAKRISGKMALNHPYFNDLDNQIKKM
T2 sequence (P14635 whole entry partner): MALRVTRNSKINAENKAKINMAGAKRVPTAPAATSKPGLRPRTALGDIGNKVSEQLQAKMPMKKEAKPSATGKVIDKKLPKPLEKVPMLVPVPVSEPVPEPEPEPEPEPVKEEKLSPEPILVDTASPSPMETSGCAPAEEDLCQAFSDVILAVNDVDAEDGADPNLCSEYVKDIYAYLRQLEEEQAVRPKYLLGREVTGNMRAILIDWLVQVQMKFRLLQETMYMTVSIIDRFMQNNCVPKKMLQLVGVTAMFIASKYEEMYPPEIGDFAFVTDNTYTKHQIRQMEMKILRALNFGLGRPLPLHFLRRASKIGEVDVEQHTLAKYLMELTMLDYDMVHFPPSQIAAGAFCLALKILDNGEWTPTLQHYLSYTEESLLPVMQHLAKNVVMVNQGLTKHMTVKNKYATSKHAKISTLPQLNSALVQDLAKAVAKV

Regarding `CC(=O)N1CCC(n2ncc3ncc(Nc4cc(C(C)C)[nH]n4)nc32)CC1` [Example 58, 1-(4-(6-((5-isopropyl-1H-pyrazol-3-yl)amino)-1H-pyrazolo[3,4-b]pyrazin-1-yl)piperidin-1-yl)ethan-1-one], the IC50 on CDK2/Cyclin E is 3.5 nM; on CDK1/Cyclin B1 it was 237 nM.
For `CC(=O)N1CCC[C@H](n2ncc3ncc(Nc4cc(C(C)C)[nH]n4)nc32)C1` [Example 59, (S)-1-(3-(6-((5-isopropyl-1H-pyrazolo-3-yl)amino)-1H-pyrazolo[3,4-b]pyrazin-1-yl)piperidin-1-yl)ethan-1-one] the same measures were 14.8 nM and 2370 nM.
For `CC(C)c1cc(Nc2cnc3cnn(C[C@@H](C)CO)c3n2)n[nH]1` [Example 60, (R)-3-(6-((5-isopropyl-1H-pyrazol-3-yl)amino)-1H-pyrazolo[3,4-b]pyrazin-1-yl)-2-methylpropan-1-ol] the same measures were 7.9 nM and 1570 nM.
For `CC(C)c1cc(Nc2cnc3cnn(C[C@H](C)CO)c3n2)n[nH]1` [Example 61, (S)-3-(6-((5-isopropyl-1H-pyrazol-3-yl)amino)-1H-pyrazolo[3,4-b]pyrazin-1-yl)-2-methylpropan-1-ol] the same measures were 13.2 nM and 1880 nM.
On to `CC(C)c1cc(Nc2cnc3cnn(CC4CCNCC4)c3n2)n[nH]1` [Example 62, N-(5-isopropyl-1H-pyrazol-3-yl)-1-(piperidin-4-ylmethyl)-1H-pyrazolo[3,4-b]pyrazin-6-amine], for which the IC50 stood at 16 nM on CDK2/Cyclin E and 1930 nM at CDK1/Cyclin B1.
For `CC(C)c1cc(Nc2cnc3cnn(CC4CCN(C)CC4)c3n2)n[nH]1` [Example 64, N-(5-isopropyl-1H-pyrazol-3-yl)-1-((1-methylpiperidin-4-yl)methyl)-1H-pyrazolo[3,4-b]pyrazin-6-amine] the same measures were 56 nM and 2080 nM.
